“And” between values parts separate entries of the source, which are not always exact repeats. Identical values can stand only once. Like-named read-outs stand apart in the source and are kept apart here.
Tested on: L. major lysate proteins
Assay: Multitargeted bead mixture chemoproteomics, single concentration competition, proteome-wide
Assay type: binding
Settings: for fold change: vehicle control = 1

`NCCOCCOCC(=O)Nc1nc2ncc(CNc3ccc(C(=O)NC(CCC(=O)O)C(=O)O)cc3)nc2c(=O)[nH]1` (stereo not drawn) [compound 6] was tested, and the “fold change vs vehicle control” value was 1.04 and 1.02, the “protein inhibition, any captured protein (Figure 8)” value (bead mixture, L. major lysate) was “no protein inhibition >30%” and the “fold change vs vehicle control” value (protein CLI00016468.1 KINETOPLASTID MEMBRANE PROTEIN-11) was 0.79. For the same compound, the “fold change vs vehicle control” value (protein LINJ.03.0240 RIBOSOMAL PROTEIN L38, PUTATIVE) was 1.35, the “fold change vs vehicle control” value (protein LINJ.11.0780 40S RIBOSOMAL PROTEIN S21, PUTATIVE) was 1.03 and the fold change (protein LINJ.11.0960 40S RIBOSOMAL PROTEIN S5) was 1.03. For the same compound, the “fold change vs vehicle control” value (protein LINJ.13.0990 PROTEASOME REGULATORY ATPASE SUBUNIT 2, PUTATIVE) was 0.92, the “fold change vs vehicle control” value (protein LINJ.15.0330 RIBONUCLEOPROTEIN P18, MITOCHONDRIAL PRECURSOR, PUTATIVE) was 0.98 and the fold change (protein LINJ.19.0090 FIBRILLARIN, PUTATIVE) was 0.87. The “fold change relative to vehicle control” value (protein LINJ.23.0860, 3-KETOACYL-COA THIOLASE, PUTATIVE) was 1.25, the “fold change relative to vehicle control” value (protein LINJ.24.2300, 60S RIBOSOMAL PROTEIN L12, PUTATIVE) was 1 and the “fold change vs vehicle control” value (protein LINJ.25.2230 SUCCINYL-COA […] SUBUNIT, PUTATIVE) was 1.06. The “fold change vs vehicle control” value (protein LINJ.26.1630 40S RIBOSOMAL PROTEIN S33, PUTATIVE) was 1.13, the “fold change vs vehicle control” value (protein LINJ.28.1100 RIBOSOMAL PROTEIN S20, PUTATIVE) was 0.92 and the “fold change relative to vehicle control” value (protein LINJ.28.1940, REPLICATION FACTOR A, 51KDA SUBUNIT, PUTATIVE) was 0.96. For the same compound, the fold change (protein LINJ.28.2280 DYNEIN LIGHT CHAIN LC6, FLAGELLAR OUTER ARM, PUTATIVE) was 0.7, the fold change (protein LINJ.28.2870 PROTEIN PHOSPHATASE 4 CATALYTIC SUBUNIT, PUTATIVE) was 0.82 and the “fold change relative to vehicle control” value (protein LINJ.31.1600, […] OXIDASE VIII (COX VIII), PUTATIVE) was 0.8. The “fold change relative to vehicle control” value (protein LINJ.33.1730, CYCLOPHILIN 4, PUTATIVE) was 1.42, the “fold change vs vehicle control” value (protein LINJ.34.0670 […]-ATP-ASE SUBUNIT 11, PUTATIVE,19S […]) was 1.08 and the “fold change vs vehicle control” value (protein LINJ.36.0780 PROTEIN KINASE, PUTATIVE,MITOGEN-ACTIVATED PROTEIN KINASE, PUTATIVE) was 1.16. The “fold change relative to vehicle control” value (protein LINJ.36.3960, BASIC TRA[…] 3A, PUTATIVE) was 1.37, the “fold change vs vehicle control” value (protein LINJ.36.4070 EUKARYOTIC TRANSLATION INITIATION FACTOR 3 SUBUNIT, PUTATIVE) was 0.98 and the “fold change relative to vehicle control” value (protein LINJ.36.4080, HY[…], CONSERVED) was 1.12. The fold change (protein LINJ.36.4180 HS1VU COMPLEX P[…]-LIKE) was 1.02, the “fold change vs vehicle control” value (protein LINJ.[…] LONG-CHAIN-FATTY-ACID-COA LIGASE, PUTATIVE) was 0.98 and the fold change (protein LMJF.01.0570 TRIC[…], PUTATIVE) was 0.96. For the same compound, the “fold change relative to vehicle control” value (protein LMJF.03.0200, DELTA-1-PYRROLINE-5-CARBOXYLATE DEHYDROGENASE, PUTATIVE) was 1.14, the fold change (protein LMJF.03.0230 LONG CHAIN FATTY ACYL COA SYNTHETASE, PUTATIVE) was 1 and the fold change (protein LMJF.03.0980 ELONGATION INITIATION FACTOR 2 ALPHA SUBUNIT, PUTATIVE) was 0.99. For the same compound, the “fold change vs vehicle control” value (protein LMJF.04.0630 HY[…], CONSERVED) was 1.04, the “fold change vs vehicle control” value (protein LMJF.04.1230 actin) was 1.07 and the fold change (protein LMJF.05.0100 PHOSPHOPROTEIN PHOSPHATASE, PUTATIVE) was 0.99. The fold change (protein LMJF.05.0280 PROTEIN TYROSINE PHOSPHATASE, PUTATIVE) was 0.92, the fold change (protein LMJF.05.0510 ATPASE ALPHA SUBUNIT) was 1.08 and the fold change (protein LMJF.05.1040 STOMATIN-LIKE PROTEIN) was 0.97. The fold change (protein LMJF.06.0650 LANOSTEROL SYNTHASE, PUTATIVE) was 0.97, the “fold change vs vehicle control” value (protein LMJF.07.0700 TOPOISOMERASE-RELATED FUNCTION PROTEIN-LIKE PROTEIN) was 0.83 and the fold change (protein LMJF.07.1000 RNA BINDING PROTEIN-LIKE PROTEIN) was 0.9. For the same compound, the “fold change relative to vehicle control” value (protein LMJF.07.1140, PEPTIDE […] REDUCTASE-LIKE) was 1.14, the fold change (protein LMJF.08.0510 RIBOSE-PHOSPHATE PYROPHOSPHOKINASE, PUTATIVE) was 0.97 and the “fold change vs vehicle control” value (protein LMJF.08.0550 T[…]-LIKE PROTEIN) was 1.05. The “fold change relative to vehicle control” value (protein LMJF.08.1030, cathepsin L-like protease) was 0.94, the “fold change vs vehicle control” value (protein LMJF.08.1100 HY[…], CONSERVED) was 1.01 and the “fold change vs vehicle control” value (protein LMJF.09.1010 HYPOTHETICAL PROTEIN, CONSERVED) was 0.88. The “fold change relative to vehicle control” value (protein LMJF.09.1120, MIT[…] BINDING PROTEIN 2,MRP2, GBP25) was 1.13, the “fold change vs vehicle control” value (protein LMJF.09.1260 HYPOTHETICAL PROTEIN, CONSERVED) was 0.98 and the fold change (protein LMJF.10.0210 NUCLEOLAR PROTEIN, PUTATIVE) was 1.03. For the same compound, the “fold change vs vehicle control” value (protein LMJF.10.0310 PROTEIN TRANSPORT PROTEIN SEC23, PUTATIVE) was 0.91, the fold change (protein LMJF.11.0590 3-[…]-COA C[…] SUBUNIT, PUTATIVE) was 0.92 and the “fold change relative to vehicle control” value (protein LMJF.11.0630, AMINOPEPTIDASE, PUTATIVE,METALLO-PEPTIDASE, CLAN MF, FAMILY M17) was 1.13. For the same compound, the “fold change vs vehicle control” value (protein LMJF.11.1050 PRETRA[…], ALPHA SUBUNIT, PUTATIVE,SEC61-LIKE (PRETRA[…]) PROTEIN, PUTATIVE) was 1.04, the fold change (protein LMJF.11.1160 PROTEIN TRANSPORT PROTEIN SEC31, PUTATIVE) was 0.87 and the fold change (protein LMJF.12.0030 PROTEASOME BETA-1 SUBUNIT, PUTATIVE) was 0.9. For the same compound, the “fold change vs vehicle control” value (protein LMJF.12.0210 […] […]1L8 3, PUTATIVE) was 0.98, the “fold change relative to vehicle control” value (protein LMJF.12.0530, GLUCOSE-6-PHOSPHATE ISOMERASE) was 1.41 and the fold change (protein LMJF.12.0630 ALANINE AMINOTRANSFERASE) was 0.95. The “fold change vs vehicle control” value (protein LMJF.13.1230 40S RIBOSOMAL PROTEIN S4, PUTATIVE) was 1.22, the “fold change vs vehicle control” value (protein LMJF.14.0310 PROTEASOME ALPHA 3 SUBUNIT, PUTATIVE) was 0.96 and the fold change (protein LMJF.14.0660 FATTY ACID ELONGASE, PUTATIVE) was 1.14. The fold change (protein LMJF.14.0670 FATTY ACID ELONGASE, PUTATIVE) was 0.98, the “fold change vs vehicle control” value (protein LMJF.14.0680 FATTY ACID ELONGASE, PUTATIVE) was 1.13 and the fold change (protein LMJF.14.0990 ADP/ATP MIT[…]-LIKE PROTEIN) was 1.32. For the same compound, the “fold change vs vehicle control” value (protein LMJF.14.1160 ENOLASE) was 1.1, the fold change (protein LMJF.14.1440 HYPOTHETICAL PROTEIN, CONSERVED (cytoskeleton associated protein, putative)) was 0.82 and the fold change (protein LMJF.15.0040 HYPOTHETICAL PROTEIN, CONSERVED (Possible lysine decarboxylase, putative)) was 0.84.

From PMC6199744, “Development of Chemical Proteomics for the Folateome and Analysis of the Kinetoplastid Folateome” (ACS Infectious Diseases, 2018)
